Several values for one entry are separate records, joined by “and”; a condition that tells them apart may be missing. Equal values may be shown once.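 Protocol summary: plate cells (96-well), add compound at 5 concentrations, incubate 48 h, interpolate endpoints linearly. GI50: concentration for 50% inhibition of growth. TGI: total growth inhibition.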
Key:
Experiment in all cases: NCI anticancer screen, dose series, 48 h
EKVX NSCLC = test system: EKVX NSCLC
OVCAR-4 ovarian = test system: OVCAR-4 ovarian
ACHN renal = test system: ACHN renal
HCT-116 colon = test system: HCT-116 colon
SF-268 CNS = test system: SF-268 CNS
RXF 393 renal = test system: RXF 393 renal
NCI-H460 lung = test system: NCI-H460 lung
UACC-257 melanoma = test system: UACC-257 melanoma
NCI-H23 lung = test system: NCI-H23 lung
A498 renal = test system: A498 renal

Row | SMILES | TGI (EKVX NSCLC) [µM] | TGI (OVCAR-4 ovarian) [µM] | TGI (ACHN renal) | TGI (HCT-116 colon) | TGI (SF-268 CNS) | TGI (RXF 393 renal) | TGI (NCI-H460 lung) | TGI (UACC-257 melanoma) | TGI (NCI-H23 lung) | TGI (A498 renal) | GI50 (EKVX NSCLC) [µM] | GI50 (OVCAR-4 ovarian) [µM] | GI50 (ACHN renal) [µM] | GI50 (HCT-116 colon) [µM] | GI50 (SF-268 CNS) [µM] | GI50 (RXF 393 renal) [µM] | GI50 (NCI-H460 lung) [µM] | GI50 (UACC-257 melanoma) [µM] | GI50 (NCI-H23 lung) [µM] | GI50 (A498 renal) [µM]
1 | C[C@H]1C=C2C(=O)O[C@H]3CC[C@@H](C1)[C@@]23O | 8.36 | 24.4 | 17.2 µM | 9.24 µM | 15.2 µM | 9.02 µM | 19.4 µM | 22.9 µM | 9.53 µM | 22.5 µM |  |  |  |  |  |  |  |  |  | 
2 | O=C(/C=C/C12c3ccccc3C(c3ccccc31)C1C(=O)NC(=O)C12)c1ccccc1 (configuration not stated) | 4.39 | 12.1 | 3.59 µM | 2.89 µM | 6.55 µM | 2.94 µM | 4.65 µM | 3.48 µM | 4.01 µM | 2.82 µM | 1.75 | 2.3 | 1.75 | 1.35 | 2.17 | 1.5 | 1.68 | 1.61 | 1.79 | 1.42
3 | Cc1cccc2c1[nH]c(=O)c1c3ccccc3cn21 | 44.6 | > 100 | 22.5 µM | 11.7 µM | 8.49 µM | 38.4 µM |  | 94.4 µM | 38.6 µM | 42.1 µM | 5.61 | 6.73 | 4.08 | 2.69 | 3.03 | 9.19 | 1.89 | 16.6 | 17.2 | 16.1
4 | C=C1CCC2C3(C)COC(c4ccccc4Cl)OC3CCC2(C)C1/C=C/C1=CCOC1=O (configuration not stated) | > 100 | > 100 | > 100 µM | > 100 µM | > 100 µM | > 100 µM | > 100 µM | > 100 µM | > 100 µM | > 100 µM | 2.82 | 4.47 | 38.7 | 4.48 | > 100 | > 100 | 5.96 | 9.09 | 6.18 | > 100
5 | COc1ccc(S(=O)(=O)N(C(C)=O)c2ccccc2/C=C/c2cc[n+]([O-])cc2)cc1 | > 10 | > 10 | > 10 µM | > 10 µM | > 10 µM | > 6.85 µM | > 10 µM | > 10 µM | > 10 µM | > 2.8 µM | 1.02 | > 6.79 | 2.36 | 0.542 | 1.71 | 0.456 | 0.412 |  | 1.22 | 0.209
6 | O=C(O)c1ccc(SSc2ccc(C(=O)O)cn2)nc1 | > 100 | > 100 | > 100 µM | > 100 µM | > 100 µM | > 100 µM | > 100 µM | > 100 µM | > 100 µM | > 100 µM |  |  |  |  |  |  |  |  |  | 
7 | COc1cc(CNc2oc(-c3ccccc3)c(-c3ccccc3)c2C#N)cc(CN2CCN(C)CC2)c1O | 3.59 | 3.99 | 3.19 µM | 4.17 µM | 3.7 µM | 2.95 µM | 3.55 µM | 3.71 µM | 3.79 µM | 3.48 µM | 1.81 | 1.86 | 1.8 | 1.55 | 1.79 | 1.41 | 1.89 | 1.84 | 1.86 | 1.55
8 | CCC1=C(CC2NCCc3ccccc32)CC2c3cc(OC)c(OC)cc3CCN2C1 (configuration not stated) |  |  | 37.6 µM and 3.9 µM | 11.6 µM and 2.94 µM | 14 µM and 6.12 µM | 13.5 µM and 5.3 µM | 11.7 µM and 3.57 µM | 24.5 µM and 9.49 µM | 35.9 µM and 13.1 µM | 19.6 µM and 5.8 µM | 4.81 | 3.87 | 3.96 | 2.86 | 3.13 | 2.67 | 3.28 | 10 | 5.2 | 4.25
9 | CC/C(=C/c1ccc(OC)cc1OC)[N+](=O)[O-] | 28.9 | 17.3 | 4.63 µM | 3.23 µM | 12.7 µM | 3.57 µM | 7.56 µM | 6.29 µM | 20.1 µM | 10.2 µM | 15.4 | 4.66 | 2.14 | 1.65 | 3.28 | 1.88 | 2.71 | 2.31 | 4.51 | 2.75
10 | CCN(Cc1c(F)cccc1Cl)c1ccc(CO)c(Cl)c1 |  | 0.661 | 29.4 µM | 12.1 µM | 31.4 µM | 27 µM | 11.2 µM | 0.05 µM | 33.8 µM | 0.0457 µM |  | 0.0648 | 15.1 | < 0.0172 | 16.4 | 6.31 | < 0.0249 | < 0.0248 | 13.9 | < 0.0146
11 | Nc1c2ccccc2nc2c(C(=O)Nc3ccc(S(N)(=O)=O)cc3)cccc12 | > 100 | > 100 | > 100 µM | > 100 µM | > 100 µM | > 100 µM | > 100 µM | > 100 µM | > 100 µM | > 100 µM |  |  |  |  |  |  |  |  |  | 
12 | CCOC(=O)/C=C/c1cccc(F)c1 | > 100 | > 100 | > 100 µM | > 100 µM | > 100 µM | > 100 µM | > 100 µM | > 100 µM | > 100 µM | > 100 µM |  |  |  |  |  |  |  |  |  | 
13 | Nc1cccc2c1C(=O)c1cccc(NC(=O)c3ccccc3)c1C2=O | 4.52 | > 100 | > 100 µM | 5.17 µM | > 100 µM | 2.95 µM | > 32.6 µM | 64.8 µM | > 100 µM | 6.56 µM | 0.421 | 5.07 | 0.59 | 0.401 | 0.576 | 0.363 | 0.371 | 0.614 | 0.903 | 0.306
14 | CN1CCN(CCCOc2cc(O)c3c(=O)cc(-c4ccccc4)oc3c2)CC1 | > 100 | 41 | 29.4 µM |  | 48.7 µM | 84 µM | 34.5 µM | 41.1 µM | 43.3 µM | 43.4 µM | 37.6 | 16.3 | 16 |  | 20.1 | 30.2 | 16.7 | 19.4 | 19.9 | 22

— PubChem BioAssay (NCI)
